Laboratory results reported in ChEMBL document CHEMBL1201862, “PubChem BioAssay data set” (2004).
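Step 1: Grow cells in 96-well plates. Step 2: Expose to compound for 48 hours at 5 concentrations. Step 3: Interpolate endpoints linearly; if unreached, use highest concentration. GI50 is the concentration that inhibits growth by half.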 Activity calls are given as the source filed them. Cut-off read from the data, not from the text of the source: active = GI50 up to about 1.1 µM and inactive = higher.

Columns and labels:
Assay in all cases: NCI tumour cell line growth inhibition, 48 h
DLD-1 = system: DLD-1
BT-549 = system: BT-549
MDA-N = system: MDA-N
KM-20L2 = system: KM-20L2
LXFL 529 = system: LXFL 529
M19-MEL = system: M19-MEL
HOP-18 = system: HOP-18
XF498 = system: XF498
RXF 631 = system: RXF 631

Measured: GI50

COc1cc(C2c3cc4c(cc3[C@@H](Nc3ccc(N)cc3)C3COC(=O)[C@H]23)OCO4)cc(OC)c1O (stereo partly specified)
inactive: DLD-1 4.57 µM | BT-549 2.5 µM | MDA-N 3.93 µM | KM-20L2 1.94 µM | LXFL 529 8.59 µM | M19-MEL 2.91 µM | HOP-18 9.89 µM | XF498 1.45 µM

O=[N+]([O-])c1c(/C=N/c2ccccc2)oc(-c2ccc3c(c2)OCO3)c1-c1ccc2c(c1)OCO2
inactive: DLD-1 > 100 µM | KM-20L2 > 100 µM | LXFL 529 > 100 µM | M19-MEL > 100 µM | RXF 631 > 100 µM | XF498 > 100 µM

CSc1nc2c(c(O)c(C)c(=O)n2C2OC(COC(C)=O)C(OC(C)=O)C(OC(C)=O)C2OC(C)=O)c(=O)n1C (stereo unspecified)
inactive: DLD-1 > 100 µM | KM-20L2 > 100 µM | LXFL 529 > 100 µM | HOP-18 > 100 µM | RXF 631 > 100 µM | XF498 > 100 µM

O=C1[C@@H](c2ccc(Cl)cc2)[C@H]2CC=C[C@H]2N1O
inactive: DLD-1 > 100 µM | LXFL 529 > 100 µM | M19-MEL > 100 µM | RXF 631 39.7 µM | XF498 > 100 µM

O=C(Nc1ccc(Cl)cc1)NS(=O)(=O)c1ccc2c(c1)CCC2 [SULOFENUR]
inactive: DLD-1 44.4 µM | BT-549 32.6 µM | MDA-N 28 µM | KM-20L2 37.8 µM | LXFL 529 31.5 µM | M19-MEL > 68.7 µM | HOP-18 42.8 µM | XF498 34.1 µM

O=C1c2cccc3cc([N+](=O)[O-])cc(c23)C(=O)N1NC1=NCCN1
inactive: DLD-1 > 100 µM | KM-20L2 > 100 µM | LXFL 529 > 100 µM | M19-MEL > 100 µM | HOP-18 > 100 µM | RXF 631 > 100 µM | XF498 > 100 µM

CC(C)C(=O)Nc1nc2[nH]cnc2c(=O)[nH]1
inactive: DLD-1 > 100 µM | KM-20L2 > 100 µM | LXFL 529 > 100 µM | M19-MEL > 100 µM | HOP-18 > 100 µM | RXF 631 > 100 µM | XF498 > 100 µM

CC(C)(C)c1cc(-c2c3nc(c(-c4cc(C(C)(C)C)cc(C(C)(C)C)c4)c4ccc([nH]4)c(-c4cc(C(C)(C)C)cc(C(C)(C)C)c4)c4nc(c(-c5cc(C(C)(C)C)cc(C(C)(C)C)c5)c5ccc2[nH]5)C=C4)C=C3)cc(C(C)(C)C)c1
inactive: DLD-1 > 100 µM | KM-20L2 > 100 µM | LXFL 529 > 100 µM | HOP-18 > 100 µM | RXF 631 > 100 µM | XF498 > 100 µM

C=C(C)[C@H](O)C(O)CC(C)[C@@H]1CCC23CC12CCC1[C@@]2(C)CCC(OC(C)=O)C(C)(C)C2CC(OC2OC(COC(C)=O)C(O)C(O)C2O)[C@]13C (stereo partly specified)
inactive: DLD-1 5.52 µM | KM-20L2 4.53 µM | LXFL 529 5.32 µM | M19-MEL 5.24 µM | HOP-18 8.85 µM | RXF 631 6.12 µM

CN1CC(=O)N(C)c2[nH]cnc2C1=O
inactive: DLD-1 > 100 µM | LXFL 529 > 100 µM | M19-MEL > 100 µM | HOP-18 > 100 µM | RXF 631 > 100 µM | XF498 80.9 µM

CCCCSN1C(=O)c2ccccc2C1=S
inactive: DLD-1 44.8 µM | M19-MEL 56.2 µM | RXF 631 > 100 µM | XF498 > 100 µM

O=C1c2ccc3c4ccccc4n(-c4ccccc4)c3c2C(=O)N1c1ccc(Cl)cc1
inactive: DLD-1 > 100 µM | KM-20L2 > 100 µM | LXFL 529 > 100 µM | M19-MEL > 100 µM | RXF 631 > 100 µM

CCNC1=Nc2ccc(Cl)cc2C(c2ccccc2)=NN1
inactive: M19-MEL 18.1 µM | HOP-18 62.2 µM | RXF 631 19.9 µM | XF498 25.8 µM

CCc1cccc(C)c1NC(=O)NS(=O)(=O)c1ccc(C)cc1
inactive: DLD-1 > 100 µM | KM-20L2 > 100 µM | LXFL 529 > 100 µM | M19-MEL > 100 µM | HOP-18 > 100 µM | RXF 631 > 100 µM | XF498 > 100 µM

ON=C1CCC(c2ccccc2)CC1 (stereo unspecified)
inactive: DLD-1 > 100 µM | KM-20L2 > 100 µM | LXFL 529 > 100 µM | M19-MEL > 100 µM | HOP-18 > 100 µM | XF498 > 100 µM

CN(C)c1ccc(Cc2cc(C(C)(C)C)cc(C(C)(C)C)c2O)cc1
inactive: DLD-1 21.8 µM | KM-20L2 18.5 µM | LXFL 529 15.2 µM | M19-MEL 21.3 µM | HOP-18 26 µM | RXF 631 17.3 µM | XF498 19.9 µM

N=C(NC(=S)N1CCCCC1)N1CCCCC1
inactive: DLD-1 > 100 µM | KM-20L2 > 100 µM | LXFL 529 > 100 µM | M19-MEL > 100 µM | HOP-18 > 100 µM | XF498 > 100 µM

Cc1cc(Cl)ccc1NC(=O)CC1SC(N)=NC1=O (stereo unspecified)
inactive: DLD-1 > 100 µM | KM-20L2 > 100 µM | LXFL 529 > 100 µM | M19-MEL > 100 µM | HOP-18 > 100 µM | RXF 631 > 100 µM

O=C(O)COc1ccc(C(=O)/C(SS/C(C(=O)c2ccc(OCC(=O)O)c(Cl)c2Cl)=C2\C=C(c3ccc(Cl)cc3)SS2)=C2/C=C(c3ccc(Cl)cc3)SS2)c(Cl)c1Cl
inactive: DLD-1 11.6 µM | KM-20L2 25.1 µM | LXFL 529 4.61 µM | M19-MEL 7.74 µM | HOP-18 7.73 µM | RXF 631 12.1 µM

Cc1ccc(C2=C(c3ccccc3)C(O)(c3ccccc3)C(c3ccccc3)=C2c2ccc(C)cc2)cc1
inactive: DLD-1 > 100 µM | KM-20L2 > 100 µM | LXFL 529 > 100 µM | M19-MEL > 100 µM | HOP-18 > 100 µM | RXF 631 > 100 µM | XF498 44.5 µM

CC1=C2C(c3ccccc3)(c3ccccc3)C3C=CC2(C=N3)N(C(=O)NC2CCCCC2)C1=O (stereo unspecified)
inactive: KM-20L2 16.8 µM | LXFL 529 16.6 µM | HOP-18 18.7 µM | RXF 631 12.7 µM

CCN(CC)CCOc1ccc(C(=C2CCCCC2)c2ccc(OCCN(CC)CC)cc2)cc1
active: XF498 1.07 µM
inactive: DLD-1 1.93 µM | KM-20L2 1.27 µM | LXFL 529 1.69 µM | M19-MEL 1.71 µM | HOP-18 2.89 µM | RXF 631 1.46 µM

CC1(C)O[C@H]2[C@H](O)C[C@](O)(CO)C[C@H]2O1
inactive: DLD-1 > 100 µM | KM-20L2 > 100 µM | LXFL 529 > 100 µM | M19-MEL > 100 µM | RXF 631 > 100 µM

CC1(C)CC(N(C(=O)/C=C/c2ccc([N+](=O)[O-])o2)C2CCCCC2)CC(C)(C)N1
inactive: DLD-1 1.73 µM | KM-20L2 5.38 µM | LXFL 529 5.36 µM | M19-MEL 5.11 µM | HOP-18 22.8 µM | RXF 631 10.6 µM | XF498 11.4 µM
